Data published in ChEMBL document CHEMBL5137017, “Identification of NVP-CLR457 as an Orally Bioavailable Non-CNS-Penetrant pan-Class IA Phosphoinositol-3-Kinase Inhibitor” (J Med Chem, 2022).
Activity calls are given as the source filed them. The rule behind the calls is not given here.

What was measured:
Tubulin (Homo sapiens) [1] = target: T1, Tubulin (Homo sapiens) (UniProt P68371+Q9H4B7+P0DPH7+P68366+Q13509+Q71U36+P04350+Q3ZCM7+P07437+P68363+Q9BQE3+Q6PEY2+Q13885+Q9BVA1+Q9BUF5); assay: Binding affinity to tubulin in human A2058 cells assessed as condensed DNA score at 5 uM measured after 24 hrs by DiffQuick staining based microscopic analysis; format: cell-based
cells = conditions: Rattus norvegicus, Rat1, 1 h
Tubulin (Homo sapiens) [2] = target: T1, Tubulin (Homo sapiens); assay: Binding affinity to tubulin in human A2058 cells assessed as condensed DNA score at 5 uM measured after 6 hrs by DiffQuick staining based microscopic analysis; format: cell-based
[3] = Brain to blood ratio in OF1 mouse at 1 mg/kg, iv measured at 5 mins post dose by LC-MS/MS analysis; format: ADME, organism-based; conditions: brain and blood, read-out: BBR
[4] = Brain to blood ratio in OF1 mouse at 1 mg/kg, iv measured at 1 hr post dose by LC-MS/MS analysis; format: ADME, organism-based; conditions: brain and blood, read-out: BBR
[5] = target: T2, Serine/threonine-protein kinase mTOR (Homo sapiens, UniProt P42345); assay: Binding affinity to human N-terminal GST-tagged mTOR assessed as phosphorylated 4EBP1 by TR-FRET assay
[6] = target: T2, Serine/threonine-protein kinase mTOR; assay: Displacement of Alexa Fluor labelled Tracer-314 from human N-terminal GST-tagged mTOR incubated for 1 hr by TR-FRET assay
[7] = 1-octanol, logP of the compound at pH 7.4; format: physicochemical
[8] = Oral bioavailability in Sprague-Dawley rat at 3 mg/kg measured for 0.25 to 24 hrs by LC-MS/MS analysis; format: ADME, organism-based; conditions: in vivo, time 0.25-24 hrs
[9] = Stability in human liver microsomes assessed as hepatic extraction preincubated for 3 mins followed by NADPH addition and measured after 60 mins; format: ADME, Microsome; conditions: read-out: ERH
[10] = Drug concentration in OF1 mouse blood at 1 mg/kg, iv measured at 5 mins post dose by LC-MS/MS analysis; format: ADME, organism-based; conditions: whole blood, read-out: Ct
[11] = Drug concentration in OF1 mouse brain at 1 mg/kg, iv measured at 5 mins post dose by LC-MS/MS analysis; format: ADME, organism-based; conditions: in vivo
[12] = AUC in Sprague-Dawley rat at 1 mg/kg, iv measured for 0.083 to 48 hrs by LC-MS/MS analysis; format: ADME, organism-based; design: time upper 48 hrs, dose 1 mg/kg, time lower 0.083 hrs, route iv; conditions: in vivo
[13] = Half life in Sprague-Dawley rat at 3 mg/kg, po or iv measured upto 24 hrs by LC-MS/MS analysis; format: ADME, organism-based; conditions: in vivo
[14] = Stability in rat liver microsomes assessed as hepatic extraction preincubated for 3 mins followed by NADPH addition and measured after 60 mins; format: ADME, Microsome; conditions: read-out: ERH
[15] = Drug concentration in OF1 mouse brain at 1 mg/kg, iv measured at 1 hr post dose by LC-MS/MS analysis; format: ADME, organism-based; conditions: in vivo
[16] = Stability in mouse liver microsomes assessed as hepatic extraction preincubated for 3 mins followed by NADPH addition and measured after 60 mins; format: ADME, Microsome; conditions: time 63 min, read-out: ERH
[17] = Volume of distribution at steady state in Sprague-Dawley rat at 3 mg/kg, po or iv measured upto 24 hrs by LC-MS/MS analysis; format: ADME, organism-based; conditions: in vivo
[18] = Drug concentration in OF1 mouse blood at 1 mg/kg, iv measured at 1 hr post dose by LC-MS/MS analysis; format: ADME, organism-based; conditions: whole blood, read-out: Ct
Rat1 [19] = assay: Antitumor activity at rat Rat1 cells expressing myr-p110alpha xenografted in athymic nude mouse assessed as T/C ratio at 20 mg/kg, po bid measured after 14 to 22 days; format: functional; conditions: time 14-22 day
[20] = Toxicity in athymic nude mouse xenografted with rat Rat1 cells expressing myr-p110delta assessed as drug tolerance at 20 mg/kg, po bid measured for 7 to 15 days; format: organism-based; conditions: in vivo, time 7-15 day
Rat1 [21] = assay: Antitumor activity at rat Rat1 cells expressing myr-p110alpha xenografted in athymic nude mouse assessed as T/C ratio at 30 mg/kg, po bid measured after 14 to 22 days; format: functional; conditions: time 14-22 day
Tubulin (Sus scrofa) = Tubulin (Sus scrofa) (UniProt P02554+P02550); assay: Inhibition of porcine tubulin polymerization assessed as inhibition of microtubule polymerization at 15 to 30 uM measured after 1 hr; format: protein assay; conditions: dose 15-30 µM, DDE = dose-dependent effect
Rat1 [22] = assay: Antitumor activity at rat Rat1 cells expressing myr-p110delta xenografted in athymic nude mouse assessed as T/C ratio at 30 mg/kg, po bid measured after 7 to 15 days; format: functional; conditions: time 7-15 day
Rat1 [23] = assay: Antitumor activity at rat Rat1 cells expressing myr-p110delta xenografted in athymic nude mouse assessed as T/C ratio at 20 mg/kg, po bid measured after 7 to 15 days; format: functional; conditions: time 7-15 day
[24] = Toxicity in athymic nude mouse xenografted with rat Rat1 cells expressing myr-p110delta assessed as body weight loss at 30 mg/kg, po bid measured for 7 to 15 days; format: organism-based; conditions: in vivo, time 7-15 day
A2780 = assay: Induction of cell cycle arrest in human A2780 cells assessed as G2/M marker expression level at 30 uM measured after 6 hr by immunofluorescence staining method; format: functional, cell-based
[25] = Toxicity in athymic nude mouse xenografted with rat Rat1 cells expressing myr-p110alpha assessed as body weight loss at 20 to 30 mg/kg, po bid measured for 7 to 15 days; format: organism-based; conditions: in vivo, dose lower 20 mg/kg, time lower 7 day, dose upper 30 mg/kg, time upper 15 day

Tubulin (Sus scrofa), sequence (P02550 whole entry, looked up): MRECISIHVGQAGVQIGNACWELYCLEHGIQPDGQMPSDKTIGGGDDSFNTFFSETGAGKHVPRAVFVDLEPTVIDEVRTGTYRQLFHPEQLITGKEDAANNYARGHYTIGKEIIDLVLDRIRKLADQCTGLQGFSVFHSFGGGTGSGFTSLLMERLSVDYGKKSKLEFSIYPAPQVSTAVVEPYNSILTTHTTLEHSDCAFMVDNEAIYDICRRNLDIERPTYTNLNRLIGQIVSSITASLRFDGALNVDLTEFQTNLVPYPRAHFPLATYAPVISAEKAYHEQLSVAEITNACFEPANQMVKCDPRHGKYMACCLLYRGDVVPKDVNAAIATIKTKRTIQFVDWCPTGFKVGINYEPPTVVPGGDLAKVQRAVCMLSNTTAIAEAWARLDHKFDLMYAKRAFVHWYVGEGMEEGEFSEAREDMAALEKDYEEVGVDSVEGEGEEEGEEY
Tubulin (Sus scrofa), sequence (P02554 whole entry, looked up): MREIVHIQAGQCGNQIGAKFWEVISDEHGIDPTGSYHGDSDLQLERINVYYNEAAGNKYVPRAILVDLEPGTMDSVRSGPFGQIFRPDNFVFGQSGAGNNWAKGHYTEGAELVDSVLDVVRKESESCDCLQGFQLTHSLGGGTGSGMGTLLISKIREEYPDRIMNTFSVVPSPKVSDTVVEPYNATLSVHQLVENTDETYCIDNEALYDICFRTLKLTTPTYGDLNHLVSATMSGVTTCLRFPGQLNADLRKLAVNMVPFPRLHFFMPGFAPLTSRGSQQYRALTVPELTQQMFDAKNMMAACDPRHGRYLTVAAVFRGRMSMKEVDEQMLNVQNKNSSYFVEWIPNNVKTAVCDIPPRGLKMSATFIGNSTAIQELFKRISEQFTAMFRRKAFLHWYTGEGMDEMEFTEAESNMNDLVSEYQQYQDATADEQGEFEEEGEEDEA

For `Cn1c(=O)n(-c2ccc(C(C)(C)C#N)cc2)c2c3cc(-c4cnc5ccccc5c4)ccc3ncc21` [DACTOLISIB], the Activity (Tubulin (Homo sapiens) [1]) was < 2%, the IC50 (cells) was 0.014 µM and the Activity (Tubulin (Homo sapiens) [2]) was < 2%.

For `COc1ccc2c(c1)OCCN2c1cc(-c2cnc(N)nc2)nc(N2CCOCC2)n1`, the Kp at 5 min [3] was 3.23, the Activity (Tubulin (Homo sapiens) [1]) was 6% and the IC50 (cells) was 0.239 µM. The Activity (Tubulin (Homo sapiens) [2]) was > 12%, the Kp at 1 h [4] was 1.91 and the IC50 [5] was > 9.1 µM.

For `Nc1ncc(-c2cc(N3CCOCC3)nc(N3CCOCC3)n2)c(C(F)(F)F)n1`, the Activity (Tubulin (Homo sapiens) [1]) was > 12%, the IC50 (cells) was 0.191 µM and the Activity (Tubulin (Homo sapiens) [2]) was > 12%. The IC50 [5] was 6.31 µM and the IC50 [6] was 2.07 µM.

In the case of `Nc1cc(C(F)(F)F)c(-c2cc(N3CCOC3=O)nc(N3CCOCC3)n2)cn1`, the IC50 (cells) is reported as 1.07 µM, the logD [7] is reported as 2.7 and the IC50 [6] is reported as 6.8 µM.

`CC1(C)OC(=O)N(c2nc(-c3cnc(N)nc3C(F)(F)F)cc(N3CCOCC3)n2)[C@H]1CO` gave an IC50 (cells) of 0.081 µM.

`C[C@H](O)[C@@H]1COC(=O)N1c1nc(-c2cnc(N)nc2C(F)(F)F)cc(N2CCOCC2)n1` showed an IC50 (cells) of 0.083 µM and an IC50 [6] of 1.34 µM.

`Nc1cc(C(F)(F)F)c(-c2cc(N3CCNC3=O)nc(N3CCOCC3)n2)cn1` showed an IC50 (cells) of 0.431 µM and a logD [7] of 2.6.

For `Nc1cc(C(F)(F)F)c(-c2cc(N3CCCCC3=O)nc(N3CCOCC3)n2)cn1`, the Activity (Tubulin (Homo sapiens) [1]) was < 2%, the IC50 (cells) was 1.04 µM and the Activity (Tubulin (Homo sapiens) [2]) was < 2%. For the same compound, the IC50 [6] was 5.06 µM.

For `Nc1ncc(-c2cc(N3CCOCC3)nc(N3C[C@@H](CO)OC3=O)n2)c(C(F)(F)F)n1`, the IC50 (cells) was 0.101 µM and the IC50 [6] was > 9.1 µM.

In the case of `CS(=O)(=O)N1CCN(Cc2cc3nc(-c4cccc5[nH]ncc45)nc(N4CCOCC4)c3s2)CC1` [PICTILISIB], the Activity (Tubulin (Homo sapiens) [1]) is reported as < 2%, the IC50 (cells) is reported as 0.044 µM and the Activity (Tubulin (Homo sapiens) [2]) is reported as < 2%.

`Nc1ncc(-c2cc(N3CCOCC3)nc(N3C(=O)OC[C@H]3CO)n2)c(C(F)(F)F)n1` showed an IC50 (cells) of 0.18 µM and an IC50 [6] of 5.94 µM.

In the case of `C[C@H]1OC(=O)N(c2nc(-c3cnc(N)nc3C(F)(F)F)cc(N3CCOCC3)n2)[C@H]1CN1CC[S+]([O-])CC1`, the IC50 (cells) is reported as > 10 µM.

For `Nc1ncc(-c2cc(N3CCOCC3)nc(N3CCOCC3)n2)c(=O)[nH]1`, the Activity (Tubulin (Homo sapiens) [1]) was < 2%, the IC50 (cells) was 0.481 µM and the Activity (Tubulin (Homo sapiens) [2]) was < 2%. The IC50 [5] was 0.44 µM.

Work on `Nc1cc(C(F)(F)F)c(-c2cc(N3CCOC(c4ccccc4)C3)nc(N3CCOCC3)n2)cn1` (racemic) yielded a Kp at 5 min [3] of 4.89, an IC50 (cells) of 2.77 µM and a Kp at 1 h [4] of 3.73.

In the case of `C[C@H]1COC(=O)N1c1nc(-c2cnc(N)nc2C(F)(F)F)cc(N2CCOCC2)n1`, the Kp at 5 min [3] is reported as 1.11, the bioavailability [8] is reported as 46% and the hepatic extraction ratio at 1 h [9] is reported as 0.54. It also gave a concentration at 5 min [10] of 1640 nM, a Ct [11] of 1813 pmol/g and an IC50 (cells) of 0.028 µM. The AUC [12] was 0.762 µM·h, the half-life [13] was 1.2 h and the hepatic extraction ratio at 1 h [14] was 0.67. For the same compound, the Kp at 1 h [4] was 0.9, the Ct [15] was 553 pmol/g and the hepatic extraction ratio at 1 h [16] was 0.27. For the same compound, the Vdss [17] was 4.4 L/kg, the concentration at 1 h [18] was 616 nM and the IC50 [6] was 2.88 µM.

With `Nc1cc(C(F)(F)F)c(-c2cc(N3CCOCC3)nc(N3CCOCC3)n2)cn1` [BUPARLISIB] the Kp at 5 min [3] was 1.98, the Activity (Tubulin (Homo sapiens) [1]) was > 12% and the T/C (Rat1 [19]) was -0.15. The Activity [20] was “Toxic”, the T/C (Rat1 [21]) was -0.61 and the Activity (Tubulin (Homo sapiens) [2]) was > 12%. For the same compound, the inhibition (Tubulin (Sus scrofa)) was “Dde”, the T/C (Rat1 [22]) was 0.12 and the T/C (Rat1 [23]) was 0.1. For the same compound, the Kp at 1 h [4] was 1.74, the Activity [24] was -8% and the Activity (A2780) was “Active”. It also gave an Activity [25] of -7%.

Compound `Nc1ncc(-c2cc(N3CCOCC3)nc(N3C(=O)OC[C@@H]3CO)n2)c(C(F)(F)F)n1` has an IC50 (cells) of 0.063 µM and an IC50 [6] of 3.88 µM.

In the case of `Nc1cc(C(F)(F)F)c(-c2cc(N3CCN(c4ccccc4)C3=O)nc(N3CCOCC3)n2)cn1`, the Activity (Tubulin (Homo sapiens) [1]) is reported as < 2%, the IC50 (cells) is reported as 1.47 µM and the Activity (Tubulin (Homo sapiens) [2]) is reported as < 2%. It also gave an IC50 [6] of 6.2 µM.
